Measured values as given in the NIST ThermoML archive (doi:10.1016/j.fluid.2012.12.022).
± gives the expanded uncertainty stated by the source.

Legend:
[1] = refractive index (Na D-line) (dimensionless); details: 298.15 K; 101.33 kPa; Liquid; Standard Abbe refractometry
[2] = Liquid; for Normal boiling temperature: Distillation; for mass density: 298.15 K, 101.33 kPa, Vibrating tube method

Row | refractive index [1] | Normal boiling temperature [2] | mass density [2] | Structure (SMILES)
1 | 1.4308 ± 0.0005 | 197.12 ± 0.41 °C |  | OCCO [1,2-ethanediol]
2 | 1.3594 ± 0.0005 | 77.90 ± 0.41 °C | 785.18 ± 0.15 kg/m3 | CCO [ethanol]
3 | 1.4726 ± 0.0005 | 289.90 ± 0.41 °C | 1258.52 ± 0.19 kg/m3 | OCC(O)CO [glycerol]
4 | 1.3325 ± 0.0005 | 100.00 ± 0.41 °C |  | O [water]
